# Several values for one entry are separate records, joined by “and”; a condition that tells them apart may be missing. Equal values may be shown once. Toxic doses and inconclusive results are not listed.
# Test system: BDF1 mice, Lymphoma 8 ip, survival T/C
# Assay: NCI In Vivo Anticancer Drug Screen. Data for tumor model Lymphoma 8 (intraperitoneal) in B6D2F1 (BDF1) mice
# Conditions: higher = longer survival
# Method: The antitumor activity of compounds was measured in mice bearing transplantable tumors. Survival or tumor size were measured and the results are expressed as the measurement made in the treated group (T) divided by the measurement made in the vehicle treated control group (C). The tumor model used in this assay is Lymphoma 8 (intraperitoneal) in B6D2F1 (BDF1) mice
# [1] = endpoint: survival time, mean or median, dose: 12.5 mg/kg/injection, schedule: Q01DX015 (ip), vehicle: carboxymethylcellulose (CMC)
smiles,measurement,setting,value
O=C(O)c1[nH]c(=O)[nH]c(=O)c1F,T/C,"endpoint: survival time, mean or median, dose: 12.0 mg/kg/injection, schedule: Q01DX015 (ip), vehicle: carboxymethylcellulose (CMC)",99 % of control
same,T/C,[1],98 % of control
Cn1c(O)c(N=NC(N)=S)c2ccccc21,T/C,"endpoint: survival time, mean or median, dose: 1.5 mg/kg/injection, schedule: Q01DX015 (ip), vehicle: carboxymethylcellulose (CMC)",100 % of control
same,T/C,"endpoint: survival time, mean or median, dose: 3.0 mg/kg/injection, schedule: Q01DX015 (ip), vehicle: carboxymethylcellulose (CMC)",98 % of control
same,T/C,"endpoint: survival time, mean or median, dose: 6.0 mg/kg/injection, schedule: Q01DX015 (ip), vehicle: carboxymethylcellulose (CMC)",99 % of control
same,T/C,[1],95 % of control
same,T/C,"endpoint: survival time, mean or median, dose: 25.0 mg/kg/injection, schedule: Q01DX015 (ip), vehicle: carboxymethylcellulose (CMC)",97 % of control
same,T/C,"endpoint: survival time, mean or median, dose: 50.0 mg/kg/injection, schedule: Q01DX015 (ip), vehicle: carboxymethylcellulose (CMC)",124 % of control
same,T/C,"endpoint: survival time, mean or median, dose: 100.0 mg/kg/injection, schedule: Q01DX015 (ip), vehicle: carboxymethylcellulose (CMC)",117 % of control
same,T/C,"endpoint: survival time, mean or median, dose: 200.0 mg/kg/injection, schedule: Q01DX015 (ip), vehicle: carboxymethylcellulose (CMC)",115 % of control
CCCCOP(=S)(N1CC1)N1CC1,T/C,"endpoint: survival time, mean or median, dose: 0.5 mg/kg/injection, schedule: Q01DX010 (ip), vehicle: saline",100 % of control
same,T/C,"endpoint: survival time, mean or median, dose: 1.0 mg/kg/injection, schedule: Q01DX010 (ip), vehicle: saline",103 % of control
same,T/C,"endpoint: survival time, mean or median, dose: 2.0 mg/kg/injection, schedule: Q01DX010 (ip), vehicle: saline",106 % of control
same,T/C,"endpoint: survival time, mean or median, dose: 4.0 mg/kg/injection, schedule: Q01DX010 (ip), vehicle: saline",103 % of control
NC(=O)c1[nH]nc(C2OC(CO)C(O)C2O)c1O (centres undefined),T/C,"endpoint: median survival time, dose: 1.56 mg/kg/injection, schedule: Q04DX003 (ip), vehicle: saline",100 % of control
same,T/C,"endpoint: median survival time, dose: 2.59 mg/kg/injection, schedule: Q04DX003 (ip), vehicle: saline",103 % of control
same,T/C,"endpoint: median survival time, dose: 4.32 mg/kg/injection, schedule: Q04DX003 (ip), vehicle: saline",103 % of control
same,T/C,"endpoint: median survival time, dose: 7.2 mg/kg/injection, schedule: Q04DX003 (ip), vehicle: saline",104 % of control
same,T/C,"endpoint: median survival time, dose: 12.0 mg/kg/injection, schedule: Q04DX003 (ip), vehicle: saline",122 % of control
same,T/C,"endpoint: median survival time, dose: 20.0 mg/kg/injection, schedule: Q04DX003 (ip), vehicle: saline",111 % of control
N=[N+]=CC(=O)OCC(N)C(=O)O (centres undefined),T/C,"endpoint: survival time, mean or median, dose: 3.13 mg/kg/injection, schedule: Q01DX010 (ip), vehicle: saline",116 % of control
same,T/C,"endpoint: survival time, mean or median, dose: 12.5 mg/kg/injection, schedule: Q01DX010 (ip), vehicle: saline",150 % of control
same,T/C,"endpoint: survival time, mean or median, dose: 25.0 mg/kg/injection, schedule: Q01DX010 (ip), vehicle: saline",87 % of control and 91 % of control
CC(=O)NC1=C(N2CC2)C(=O)C(NC(C)=O)=C(N2CC2)C1=O,T/C,"endpoint: survival time, mean or median, dose: 0.5 mg/kg/injection, schedule: Q01DX015 (ip), vehicle: carboxymethylcellulose (CMC)",174 % of control
same,T/C,"endpoint: survival time, mean or median, dose: 1.0 mg/kg/injection, schedule: Q01DX015 (ip), vehicle: carboxymethylcellulose (CMC)",150 % of control
CCCCN(CCCC)CCCCCN,T/C,"endpoint: survival time, mean or median, dose: 5.0 mg/kg/injection, schedule: Q01DX015 (ip), vehicle: carboxymethylcellulose (CMC)",99 % of control
same,T/C,"endpoint: survival time, mean or median, dose: 10.0 mg/kg/injection, schedule: Q01DX015 (ip), vehicle: carboxymethylcellulose (CMC)",101 % of control
same,T/C,"endpoint: survival time, mean or median, dose: 20.0 mg/kg/injection, schedule: Q01DX015 (ip), vehicle: carboxymethylcellulose (CMC)",104 % of control
same,T/C,"endpoint: survival time, mean or median, dose: 30.0 mg/kg/injection, schedule: Q01DX015 (ip), vehicle: carboxymethylcellulose (CMC)",99 % of control
